Reference: patent US11597721B2, “Heterocyclic compounds comprising pyridine useful as modulators of IL-12, IL-23 and/or IFNα responses” (BRISTOL-MYERS SQUIBB COMPANY, priority 2018, dated 2023)

The compounds below were run on IFNα-Induced STAT Phosphorylation (assay: IFNα-Induced STAT Phosphorylation in Human Whole Blood). Conditions: 1 h compound incubation, 1000 U/mL recombinant human IFNα A/D for 15 min, pSTAT5 in CD3 positive population, read-out: LE Human WB IFNα-Induced Stat Phosph. (IC50).
Type: cell-based
From the text: IFNα-Induced STAT Phosphorylation in Human Whole Blood
The amount of pSTAT5 expression was quantitated by median fluorescence intensity after gating on the CD3 positive population.

[2H]C([2H])([2H])NC(=O)c1nnc(Nc2ccccn2)cc1Nc1nccc(-c2ncn(C)n2)c1OC [Example 2, 4-{[3-methoxy-4-(1-methyl-1H-1,2,4-triazol-3-yl)pyridin-2-yl]amino}-N—(^2H3)methyl-6-[(pyridin-2-yl)amino]pyridazine-3-carboxamide] gave an IC50 of 50 nM.
For [2H]C([2H])([2H])NC(=O)c1nnc(Nc2ccccn2)cc1Nc1nccc(-c2ncn(C)n2)c1OC [Example 28], the IC50 was 270 nM.

Same assay, conditions: Homo sapiens, 1 h compound incubation, 1000 U/mL recombinant human IFNα A/D for 15 min, pSTAT5 in CD3 positive population, read-out: LE Human WB IFNα-Induced Stat Phosph. (IC50)

Going from [2H]C([2H])([2H])NC(=O)c1nnc(Nc2cc(C#N)ccn2)cc1Nc1nccc(-c2ncn(C)n2)c1OC [Example 13, 6-[(4-cyanopyridin-2-yl)amino]-4-{[3-methoxy-4-(1-methyl-1H-1,2,4-triazol-3-yl)pyridin-2-yl]amino}-N—(^2H3)methylpyridazine-3-carboxamide] to [2H]C([2H])([2H])NC(=O)c1nnc(Nc2cc(F)ccn2)cc1Nc1nccc(-c2ncn(C)n2)c1OC [Example 19, 6-[(4-fluoropyridin-2-yl)amino]-4-{[3-methoxy-4-(1-methyl-1H-1,2,4-triazol-3-yl)pyridin-2-yl]amino}-N—(^2H3)methylpyridazine-3-carboxamide], the IC50 falls from > 10000 nM to 30 nM.

First: [2H]C([2H])([2H])NC(=O)c1nnc(Nc2cc(C)c(F)cn2)cc1Nc1nccc(-c2ncn(C)n2)c1OC [Example 16, 6-[(5-fluoro-4-methylpyridin-2-yl)amino]-4-{[3-methoxy-4-(1-methyl-1H-1,2,4-triazol-3-yl)pyridin-2-yl]amino}-N—(^2H3)methylpyridazine-3-carboxamide]
Second: [2H]C([2H])([2H])NC(=O)c1nnc(Nc2cc(F)c(F)cn2)cc1Nc1nccc(-c2ncn(C)n2)c1OC [Example 39, 6-[(4,5-difluoropyridin-2-yl)amino]-4-{[3-methoxy-4-(1-methyl-1H-1,2,4-triazol-3-yl)pyridin-2-yl]amino}-N—(^2H3)methylpyridazine-3-carboxamide]
The IC50 of the first is 1.8-fold lower: 120 nM for the first, 220 nM for the second. The first is the more potent here.

First: [2H]C([2H])([2H])NC(=O)c1nnc(Nc2cc(CC)ccn2)cc1Nc1nccc(-c2ncn(C)n2)c1OC [Example 17, 6-[(4-ethylpyridin-2-yl)amino]-4-{[3-methoxy-4-(1-methyl-1H-1,2,4-triazol-3-yl)pyridin-2-yl]amino}-N—(^2H3)methylpyridazine-3-carboxamide]
Second: [2H]C([2H])([2H])NC(=O)c1nnc(Nc2cc(Cl)ccn2)cc1Nc1nccc(-c2ncn(C)n2)c1OC [Example 21, 6-[(4-chloropyridin-2-yl)amino]-4-{[3-methoxy-4-(1-methyl-1H-1,2,4-triazol-3-yl)pyridin-2-yl]amino}-N—(^2H3)methylpyridazine-3-carboxamide]
The IC50 of the first is 1.7-fold higher: 50 nM for the first, 30 nM for the second. The second is the more potent here.

Compared with [2H]C([2H])([2H])NC(=O)c1nnc(Nc2nnc(C)s2)cc1Nc1nccc(-c2ncn(C)n2)c1OC [Example 20, 4-{[3-methoxy-4-(1-methyl-1H-1,2,4-triazol-3-yl)pyridin-2-yl]amino}-N—(^2H3)methyl-6-[(5-methyl-1,3,4-thiadiazol-2-yl)amino]pyridazine-3-carboxamide], [2H]C([2H])([2H])NC(=O)c1nnc(Nc2ccc(OCC)nn2)cc1Nc1nccc(-c2ncn(C)n2)c1OC [Example 36, 6-[(6-ethoxypyridazin-3-yl)amino]-4-{[3-methoxy-4-(1-methyl-1H-1,2,4-triazol-3-yl)pyridin-2-yl]amino}-N—(^2H3)methylpyridazine-3-carboxamide] is 50-fold lower in IC50: 1510 nM for the first, 30 nM for the second. The second is the more potent here.

[2H]C([2H])([2H])NC(=O)c1nnc(Nc2ccc(-n3ccccc3=O)cn2)cc1Nc1nccc(-c2ncn(C)n2)c1OC [Example 24, 4-{[3-methoxy-4-(1-methyl-1H-1,2,4-triazol-3-yl)pyridin-2-yl]amino}-N—(^2H3)methyl-6-({2-oxo-2H-[1,3′-bipyridine]-6′-yl}amino)pyridazine-3-carboxamide] and [2H]C([2H])([2H])NC(=O)c1nnc(Nc2ccc(-n3cccc(C(F)(F)F)c3=O)cn2)cc1Nc1nccc(-c2ncn(C)n2)c1OC [Example 26, 4-{[3-methoxy-4-(1-methyl-1H-1,2,4-triazol-3-yl)pyridin-2-yl]amino}-N—(^2H3)methyl-6-{[2-oxo-3-(trifluoromethyl)-2H-[1,3′-bipyridine]-6-yl]amino}pyridazine-3-carboxamide] are the same in IC50: 30 nM for the first, 30 nM for the second.

Going from [2H]C([2H])([2H])NC(=O)c1nnc(Nc2cc(C(C)(C)O)ccn2)cc1Nc1nccc(-c2ncn(C)n2)c1OC [Example 25, 6-{[4-(2-hydroxypropan-2-yl)pyridin-2-yl]amino}-4-{[3-methoxy-4-(1-methyl-1H-1,2,4-triazol-3-yl)pyridin-2-yl]amino}-N—(^2H3)methylpyridazine-3-carboxamide] to [2H]C([2H])([2H])NC(=O)c1nnc(Nc2ccc(C(C)(C)O)cn2)cc1Nc1nccc(-c2ncn(C)n2)c1OC [Example 33, 6-{[5-(2-hydroxypropan-2-yl)pyridin-2-yl]amino}-4-{[3-methoxy-4-(1-methyl-1H-1,2,4-triazol-3-yl)pyridin-2-yl]amino}-N—(^2H3)methylpyridazine-3-carboxamide], the IC50 falls from 50 nM to 20 nM (2.5-fold).

First: [2H]C([2H])([2H])NC(=O)c1nnc(Nc2cc(C(F)(F)F)ccn2)cc1Nc1nccc(-c2ncn(C)n2)c1OC [Example 32, 4-{[3-methoxy-4-(1-methyl-1H-1,2,4-triazol-3-yl)pyridin-2-yl]amino}-N—(^2H3)methyl-6-{[4-(trifluoromethyl)pyridin-2-yl]amino}pyridazine-3-carboxamide]
Second: [2H]C([2H])([2H])NC(=O)c1nnc(Nc2ccncc2)cc1Nc1nccc(-c2ncn(C)n2)c1OC [Example 35, 4-{[3-methoxy-4-(1-methyl-1H-1,2,4-triazol-3-yl)pyridin-2-yl]amino}-N—(^2H3)methyl-6-[(pyridin-4-yl)amino]pyridazine-3-carboxamide]
The IC50 of the first is 2.2-fold lower: 90 nM for the first, 200 nM for the second. The first is the more potent here.

First: [2H]C([2H])([2H])NC(=O)c1nnc(Nc2ccc(N3CCN(C(C)(C)C)C3=O)cn2)cc1Nc1nccc(-c2ncn(C)n2)c1OC [Example 37, 6-{[5-(3-tert-butyl-2-oxoimidazolidin-1-yl)pyridin-2-yl]amino}-4-{[3-methoxy-4-(1-methyl-1H-1,2,4-triazol-3-yl)pyridin-2-yl]amino}-N—(^2H3)methylpyridazine-3-carboxamide]
Second: [2H]C([2H])([2H])NC(=O)c1nnc(Nc2ccc(N3CCOCC3)cn2)cc1Nc1nccc(-c2ncn(C)n2)c1OC [Example 38, 4-{[3-methoxy-4-(1-methyl-1H-1,2,4-triazol-3-yl)pyridin-2-yl]amino}-N—(^2H3)methyl-6-{[5-(morpholin-4-yl)pyridin-2-yl]amino}pyridazine-3-carboxamide]
The IC50 of the first is 13-fold higher: 130 nM for the first, 10 nM for the second.

First: [2H]C([2H])([2H])NC(=O)c1cnc(NC(=O)C2CC2)cc1Nc1nccc(-c2noc(C)n2)c1OC [Example 41, 6-cyclopropaneamido-4-{[3-methoxy-4-(5-methyl-1,2,4-oxadiazol-3-yl)pyridin-2-yl]amino}-N—(^2H3)methylpyridine-3-carboxamide]
Second: [2H]C([2H])([2H])NC(=O)c1cnc(NC(=O)CC2CC2)cc1Nc1nccc(-c2noc(C)n2)c1OC [Example 44, 6-(2-cyclopropylacetamido)-4-{[3-methoxy-4-(5-methyl-1,2,4-oxadiazol-3-yl)pyridin-2-yl]amino}-N—(^2H3)methylpyridine-3-carboxamide]
The IC50 of the first is 3-fold lower: 30 nM for the first, 90 nM for the second.

Going from [2H]C([2H])([2H])NC(=O)c1nnc(Nc2cc(C)ccn2)cc1Nc1nccc(-c2noc(CN3CCOCC3)n2)c1OC [Example 42, 4-((3-methoxy-4-(5-(morpholinomethyl)-1,2,4-oxadiazol-3-yl)pyridin-2-yl)amino)-N-trideuteromethyl-6-((4-methylpyridin-2-yl)amino)pyridazine-3-carboxamide] to [2H]C([2H])([2H])NC(=O)c1nnc(NC(=O)C2CC2)cc1Nc1nccc(-c2noc(COC)n2)c1OC [Example 50, 6-cyclopropaneamido-4-({3-methoxy-4-[5-(methoxymethyl)-1,2,4-oxadiazol-3-yl]pyridin-2-yl}amino)-N—(^2H3)methylpyridazine-3-carboxamide], the IC50 falls from 580 nM to 40 nM (14-fold).

First: [2H]C([2H])([2H])NC(=O)c1cnc(NC(=O)CC)cc1Nc1nccc(-c2noc(C)n2)c1OC [Example 43, 4-{[3-methoxy-4-(5-methyl-1,2,4-oxadiazol-3-yl)pyridin-2-yl]amino}-N—(^2H3)methy-6-propanamidopyridine-3-carboxamide]
Second: [2H]C([2H])([2H])NC(=O)c1cnc(NC(=O)CC)cc1Nc1nccc(-c2noc(COC)n2)c1OC [Example 48, 4-({3-methoxy-4-[5-(methoxymethyl)-1,2,4-oxadiazol-3-yl]pyridin-2-yl}amino)-N—(^2H3)methyl-6-propanamidopyridine-3-carboxamide]
The IC50 of the first is 1.7-fold lower: 120 nM for the first, 200 nM for the second. The first is the more potent here.

Going from [2H]C([2H])([2H])NC(=O)c1cnc(NC(=O)C2CC2)cc1Nc1nccc(-c2noc(COC)n2)c1OC [Example 45, 6-cyclopropaneamido-4-({3-methoxy-4-[5-(methoxymethyl)-1,2,4-oxadiazol-3-yl]pyridin-2-yl}amino)-N—(^2H3)methylpyridine-3-carboxamide] to [2H]C([2H])([2H])NC(=O)c1cnc(NC(=O)C2CC2)cc1Nc1nccc(-c2noc(COCC)n2)c1OC [Example 46, 6-cyclopropaneamido-4-({4-[5-(ethoxymethyl)-1,2,4-oxadiazol-3-yl]-3-methoxypyridin-2-yl}amino)-N—(^2H3)methylpyridine-3-carboxamide], the IC50 rises from 10 nM to 30 nM (3-fold). The first is the more potent here.

[2H]C([2H])([2H])NC(=O)c1cnc(NC(=O)C2CC2)cc1Nc1nccc(-c2noc(COC(C)C)n2)c1OC [Example 47, 6-cyclopropaneamido-4-[(3-methoxy-4-{5-[(propan-2-yloxy)methyl]-1,2,4-oxadiazol-3-yl}pyridin-2-yl)amino]-N—(^2H3)methylpyridine-3-carboxamide] showed an IC50 of 20 nM.
